Measurements: paper PMC11631053, “A receptor-based assay to study the sweet and bitter tastes of sweeteners and binary sweet blends: the SWEET project” (Chemical Senses, 2024)
Values joined by “and” are separate entries in the source; they are usually repeats but may differ in a detail not shown here. Identical values can stand only once. Like-named read-outs stand apart in the source and are kept apart here. Marks after values point to notes of the source that are not given here.

Legend:
[1] = sucrose = 1, cited from earlier work
TAS2R5 = biological target: T1, TAS2R5 (Homo sapiens, UniProt Q9NYW4); assay: Calcium mobilization assay, HEK293T-Gα16gust44 cells expressing TAS2R5; settings: maximal concentration tested: sucralose 100 mM, neotame 30 µM, Ace-K 300 mM, RebA 4 mM, RebM 4 mM, mogroside V 5 mM, erythritol 200 mM, D-allulose 500 mM, thaumatin 100 mM
T1 sequence (Q9NYW4 1-299): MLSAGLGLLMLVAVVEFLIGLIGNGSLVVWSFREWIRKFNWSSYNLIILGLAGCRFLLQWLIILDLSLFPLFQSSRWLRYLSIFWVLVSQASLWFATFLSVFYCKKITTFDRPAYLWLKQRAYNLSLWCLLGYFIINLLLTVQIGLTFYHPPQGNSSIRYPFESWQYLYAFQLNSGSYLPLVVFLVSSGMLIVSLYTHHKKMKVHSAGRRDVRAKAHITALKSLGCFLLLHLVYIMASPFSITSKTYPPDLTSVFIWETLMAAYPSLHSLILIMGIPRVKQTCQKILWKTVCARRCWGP
Experimental: (§1) Different concentration ranges were tested depending on the injected sweet compound. […] All of the concentration-receptor combinations were measured in triplicate, and each experiment was repeated at least 3 times. The Ca^2+ change was expressed as a fractional change in fluorescent light intensity: ΔF/F = (F − F0)/F0, where F was the fluorescent light intensity at each point, and F0 was the value of fluorescent light emitted prior to stimulus application. To calculate dose–response relationships, the changes in fluorescence upon stimulus application were averaged, mock-subtracted and baseline-corrected. The resulting obtained dose–response data were adjusted by using a 4-parameter logistic equation. The half-maximal effective concentration (EC50) was calculated by using SigmaPlot software (Systat Software, San Jose, CA, USA) as described in supplemental Supplementary Figs. S1, S2, and S3.

TAS2R43 = biological target: T2, TAS2R43 (Homo sapiens, UniProt P59537); assay: Calcium mobilization assay, HEK293T-Gα16gust44 cells expressing TAS2R43; settings: for Response of TAS2R43: maximal concentration tested: sucralose 100 mM, neotame 30 µM, Ace-K 300 mM, RebA 4 mM, RebM 4 mM, mogroside V 5 mM, erythritol 200 mM, D-allulose 500 mM, thaumatin 100 mM
T2 sequence (P59537 1-309): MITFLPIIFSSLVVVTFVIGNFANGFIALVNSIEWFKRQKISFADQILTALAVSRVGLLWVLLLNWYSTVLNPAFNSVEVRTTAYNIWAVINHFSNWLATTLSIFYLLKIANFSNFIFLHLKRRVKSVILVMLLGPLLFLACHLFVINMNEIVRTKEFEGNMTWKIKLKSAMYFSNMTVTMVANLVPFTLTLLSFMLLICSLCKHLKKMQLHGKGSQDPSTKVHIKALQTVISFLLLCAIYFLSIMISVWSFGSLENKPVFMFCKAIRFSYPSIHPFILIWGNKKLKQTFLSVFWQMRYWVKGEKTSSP
Experimental: (§2) Different concentration ranges were tested depending on the injected sweet compound. […] All of the concentration-receptor combinations were measured in triplicate, and each experiment was repeated at least 3 times. The Ca^2+ change was expressed as a fractional change in fluorescent light intensity: ΔF/F = (F − F0)/F0, where F was the fluorescent light intensity at each point, and F0 was the value of fluorescent light emitted prior to stimulus application. To calculate dose–response relationships, the changes in fluorescence upon stimulus application were averaged, mock-subtracted and baseline-corrected. The resulting obtained dose–response data were adjusted by using a 4-parameter logistic equation.

TAS2R19 = biological target: T3, TAS2R19 (Homo sapiens, UniProt P59542); assay: Calcium mobilization assay, HEK293T-Gα16gust44 cells expressing TAS2R19; settings: maximal concentration tested: sucralose 100 mM, neotame 30 µM, Ace-K 300 mM, RebA 4 mM, RebM 4 mM, mogroside V 5 mM, erythritol 200 mM, D-allulose 500 mM, thaumatin 100 mM
T3 sequence (P59542 1-299): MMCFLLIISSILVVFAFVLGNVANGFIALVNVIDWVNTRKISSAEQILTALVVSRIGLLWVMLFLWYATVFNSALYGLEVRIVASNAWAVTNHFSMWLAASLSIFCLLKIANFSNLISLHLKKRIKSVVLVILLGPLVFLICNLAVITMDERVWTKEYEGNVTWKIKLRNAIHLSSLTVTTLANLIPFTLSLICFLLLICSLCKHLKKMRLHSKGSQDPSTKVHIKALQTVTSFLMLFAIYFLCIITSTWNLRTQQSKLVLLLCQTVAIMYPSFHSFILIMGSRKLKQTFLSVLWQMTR
Experimental: as §2

TAS2R10 = biological target: T4, TAS2R10 (Homo sapiens, UniProt Q9NYW0); assay: Calcium mobilization assay, HEK293T-Gα16gust44 cells expressing TAS2R10; settings: for Response of TAS2R10: maximal concentration tested: sucralose 100 mM, neotame 30 µM, Ace-K 300 mM, RebA 4 mM, RebM 4 mM, mogroside V 5 mM, erythritol 200 mM, D-allulose 500 mM, thaumatin 100 mM
T4 sequence (Q9NYW0 1-307): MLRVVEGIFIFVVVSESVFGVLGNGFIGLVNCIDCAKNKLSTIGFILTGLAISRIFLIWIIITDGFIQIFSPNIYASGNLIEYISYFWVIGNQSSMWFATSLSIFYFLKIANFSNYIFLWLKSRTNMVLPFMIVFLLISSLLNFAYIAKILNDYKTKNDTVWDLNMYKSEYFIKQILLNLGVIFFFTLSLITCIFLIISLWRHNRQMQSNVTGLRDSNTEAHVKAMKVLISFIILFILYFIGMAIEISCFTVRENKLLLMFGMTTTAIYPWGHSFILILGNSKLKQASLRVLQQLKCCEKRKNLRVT
Experimental: as §2

TAS2R7 = biological target: T5, TAS2R7 (Homo sapiens, UniProt Q9NYW3); assay: Calcium mobilization assay, HEK293T-Gα16gust44 cells expressing TAS2R7; settings: maximal concentration tested: sucralose 100 mM, neotame 30 µM, Ace-K 300 mM, RebA 4 mM, RebM 4 mM, mogroside V 5 mM, erythritol 200 mM, D-allulose 500 mM, thaumatin 100 mM
T5 sequence (Q9NYW3 1-318): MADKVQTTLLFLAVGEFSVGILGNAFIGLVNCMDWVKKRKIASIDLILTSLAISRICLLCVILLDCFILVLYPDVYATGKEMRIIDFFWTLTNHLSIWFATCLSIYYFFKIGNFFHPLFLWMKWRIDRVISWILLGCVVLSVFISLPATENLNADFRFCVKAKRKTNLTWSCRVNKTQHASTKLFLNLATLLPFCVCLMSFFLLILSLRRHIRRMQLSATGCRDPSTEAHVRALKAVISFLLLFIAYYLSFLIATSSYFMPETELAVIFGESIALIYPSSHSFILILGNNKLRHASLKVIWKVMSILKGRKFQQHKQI
Experimental: as §1

TAS2R60 = biological target: T6, TAS2R60 (Homo sapiens, UniProt P59551); assay: Calcium mobilization assay, HEK293T-Gα16gust44 cells expressing TAS2R60; settings: maximal concentration tested: sucralose 100 mM, neotame 30 µM, Ace-K 300 mM, RebA 4 mM, RebM 4 mM, mogroside V 5 mM, erythritol 200 mM, D-allulose 500 mM, thaumatin 100 mM
T6 sequence (P59551 1-318): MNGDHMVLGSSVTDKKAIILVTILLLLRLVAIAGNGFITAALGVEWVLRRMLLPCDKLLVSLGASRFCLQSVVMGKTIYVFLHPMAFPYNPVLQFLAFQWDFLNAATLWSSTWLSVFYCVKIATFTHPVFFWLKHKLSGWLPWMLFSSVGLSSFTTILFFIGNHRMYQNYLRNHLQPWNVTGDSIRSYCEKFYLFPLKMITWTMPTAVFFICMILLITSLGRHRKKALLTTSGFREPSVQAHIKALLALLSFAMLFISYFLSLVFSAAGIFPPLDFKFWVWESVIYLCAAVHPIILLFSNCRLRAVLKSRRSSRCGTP
Experimental: as §1

TAS2R13 = biological target: T7, TAS2R13 (Homo sapiens, UniProt Q9NYV9); assay: Calcium mobilization assay, HEK293T-Gα16gust44 cells expressing TAS2R13; settings: maximal concentration tested: sucralose 100 mM, neotame 30 µM, Ace-K 300 mM, RebA 4 mM, RebM 4 mM, mogroside V 5 mM, erythritol 200 mM, D-allulose 500 mM, thaumatin 100 mM
T7 sequence (Q9NYV9 1-303): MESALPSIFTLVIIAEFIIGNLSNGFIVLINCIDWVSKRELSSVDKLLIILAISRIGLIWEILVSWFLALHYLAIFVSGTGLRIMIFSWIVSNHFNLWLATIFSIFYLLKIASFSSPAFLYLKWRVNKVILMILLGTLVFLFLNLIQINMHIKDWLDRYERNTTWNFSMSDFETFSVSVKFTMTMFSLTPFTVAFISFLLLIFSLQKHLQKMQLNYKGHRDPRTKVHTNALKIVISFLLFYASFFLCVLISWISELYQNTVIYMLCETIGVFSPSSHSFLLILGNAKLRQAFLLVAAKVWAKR
Experimental: as §2

[2] = ref Schiffman and Gatlin (1993)

| Compound | Sweetness potency [1, 2] | Response of TAS2R5 (TAS2R5) | Response of TAS2R43 (TAS2R43) | Response of TAS2R19 (TAS2R19) | EC50 (TAS2R10; TAS2R10 EC50) | Response of TAS2R10 (TAS2R10) | Response of TAS2R7 (TAS2R7) | Response of TAS2R60 (TAS2R60) | Response of TAS2R13 (TAS2R13) | Sweetness potency ([1]; ref Nofre and Tinti (2000)) | Sweetness potency ([1]; ref van der Wel and Loeve (1972)) | Sweetness potency ([1]; ref Prakash et al. (2014)) | Sweetness potency ([1]; ref Ko et al. (2020)) | concentrations at which TAS2R43 was activated (TAS2R43) [mM] | Sweetness potency ([1]; ref Jia and Yang (2009)) | Sweetness potency ([1]; ref Fujimaru et al. (2012)) |
| --- | --- | --- | --- | --- | --- | --- | --- | --- | --- | --- | --- | --- | --- | --- | --- | --- |
| OC[C@H]1O[C@H](O[C@]2(CCl)O[C@H](CCl)[C@@H](O)[C@@H]2O)[C@H](O)[C@@H](O)[C@H]1Cl [Sucralose, sucralose] | 600^g | − | − | − | 17 mM and ≥ 3 mM | #^a | − | − | − |  |  |  |  |  |  |  |
| COC(=O)[C@H](Cc1ccccc1)NC(=O)[C@H](CC(=O)O)NCCC(C)(C)C [Neotame] |  | − | − | − |  | − | − | − | − | 10,000^a |  |  |  |  |  |  |
| CC1=CC(=O)NS(=O)(=O)O1 [Ace-K, acesulfame-K] | 200^g | − | §^b | − |  | − | − | − | − |  |  |  |  |  |  |  |
| thaumatin |  | − | − | − |  | − | − | − | − |  | 100,000^b |  |  |  |  |  |
| C=C1C[C@@]23CC[C@H]4[C@@](C)(CCC[C@@]4(C)C(=O)O[C@@H]4O[C@H](CO)[C@@H](O)[C@H](O[C@@H]5O[C@H](CO)[C@@H](O)[C@H](O)[C@H]5O)[C@H]4O[C@@H]4O[C@H](CO)[C@@H](O)[C@H](O)[C@H]4O)[C@@H]2CC[C@]1(O[C@@H]1O[C@H](CO)[C@@H](O)[C@H](O[C@@H]2O[C@H](CO)[C@@H](O)[C@H](O)[C@H]2O)[C@H]1O[C@@H]1O[C@H](CO)[C@@H](O)[C@H](O)[C@H]1O)C3 [RebM, Rebaudioside M] |  | − | − | − |  | − | − | − | − |  |  | 250^d |  |  |  |  |
| O=C(CO)[C@H](O)[C@H](O)[C@H](O)CO [D-allulose] |  | − | + | + |  | − | − | − | − |  |  |  | 0.6^h | > 300 |  |  |
| C[C@H](CC[C@@H](O[C@@H]1O[C@H](CO[C@@H]2O[C@H](CO)[C@@H](O)[C@H](O)[C@H]2O)[C@@H](O)[C@H](O)[C@H]1O[C@@H]1O[C@H](CO)[C@@H](O)[C@H](O)[C@H]1O)C(C)(C)O)[C@H]1CC[C@@]2(C)[C@@H]3CC=C4[C@@H](CC[C@H](O[C@@H]5O[C@H](CO[C@@H]6O[C@H](CO)[C@@H](O)[C@H](O)[C@H]6O)[C@@H](O)[C@H](O)[C@H]5O)C4(C)C)[C@]3(C)[C@H](O)C[C@]12C [Mogroside V, mogroside V] |  | − | − | − |  | − | − | − | − |  |  |  |  |  | 500^c |  |
| OC[C@@H](O)[C@@H](O)CO [Erythritol, erythritol] |  | − | − | − |  | − | − | − | − |  |  |  |  |  |  | 0.9^f |
